Results as given in US10610522B2, “Methods for retreating irritable bowel syndrome (IBS)” (Salix Pharmaceuticals, Inc., priority 2014, dated 2020).

What was measured:
non-constipation IBS = test: Combined first and second studies (TARGET 1 and 2): pooled efficacy, sustained response and recurrence; assay type: in vivo, human; conditions: for Recurrence, Abdominal Pain & Stool Consistency: % of subjects / Recurrence, Abdominal Pain & Stool Consistency: number of subjects / Recurrence, Abdominal Pain: % of subjects / Recurrence, Abdominal Pain: number of subjects / Recurrence, Stool Consistency: % of subjects / Recurrence, Stool Consistency: number of subjects / No Recurrence, Abdominal Pain & Stool Consistency: % of subjects / No Recurrence, Abdominal Pain & Stool Consistency: number of subjects / No Recurrence, Abdominal Pain: % of subjects / No Recurrence, Abdominal Pain: number of subjects / No Recurrence, Stool Consistency: % of subjects / No Recurrence, Stool Consistency: number of subjects: N = 624; for Abdominal Pain or Stool Consistency, No Recurrence / Abdominal Pain or Stool Consistency, Recurrence: Rifaximin (N = 624), n (%)
Method: A measure of efficacy is based on subjects' answers to the Weekly Subject Global Assessment (SGA) questions over the study duration in relation to their IBS symptoms.
An evaluation of the enrolled subjects was carried out after the Primary Evaluation Period in the study described in Examples 5-7. […] Subjects with no recurrence are defined as having a stool consistency score of less than 4, abdominal pain reduced by at least 30 percent or both.

CYP3A4 = CYP3A4 (Homo sapiens, UniProt P08684); test: In vitro cytochrome P450 inhibition; assay type: biochemical; conditions: 2 to 200 ng/mL
Chain of CYP3A4 (P08684 whole entry): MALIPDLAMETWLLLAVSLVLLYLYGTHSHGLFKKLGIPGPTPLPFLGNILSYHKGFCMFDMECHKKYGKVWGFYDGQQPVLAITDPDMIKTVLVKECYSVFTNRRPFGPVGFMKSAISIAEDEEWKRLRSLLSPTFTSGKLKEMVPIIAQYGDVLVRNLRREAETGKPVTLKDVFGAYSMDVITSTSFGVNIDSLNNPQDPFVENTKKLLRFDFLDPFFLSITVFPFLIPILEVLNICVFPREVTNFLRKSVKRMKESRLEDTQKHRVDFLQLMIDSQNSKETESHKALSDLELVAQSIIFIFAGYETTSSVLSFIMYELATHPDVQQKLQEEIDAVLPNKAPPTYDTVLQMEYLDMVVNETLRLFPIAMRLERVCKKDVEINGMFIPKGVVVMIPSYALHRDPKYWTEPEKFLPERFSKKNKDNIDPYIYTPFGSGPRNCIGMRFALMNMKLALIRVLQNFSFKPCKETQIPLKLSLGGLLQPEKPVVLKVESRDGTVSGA

SMILES: CO[C@H]1/C=C/O[C@@]2(C)Oc3c(C)c(O)c4c(O)c(c5c(nc6cc(C)ccn65)c4c3C2=O)NC(=O)/C(C)=C\C=C\[C@H](C)[C@H](O)[C@@H](C)[C@@H](O)[C@@H](C)[C@H](OC(C)=O)[C@@H]1C [Rifaximin, (2S,16Z,18E,20S,21S,22R,23R,24R,25S,26S,27S,28E)-5,6,21,23,25 Pentahydroxy-27-methoxy-2,4,11,16,20,22,24,26-octamethyl-2,7-(epoxypentadeca-(1,11,13)trienimino) benzofuro (4,5-e) pyrido(1,2-a) benzimidazole-1,15(2H)-dione,25-acetate]
- Recurrence, Abdominal Pain & Stool Consistency: % of subjects (non-constipation IBS; Rolling 4 Weeks: 5-8 Weeks): 3.2%
- Recurrence, Abdominal Pain & Stool Consistency: number of subjects (non-constipation IBS; Rolling 4 Weeks: 5-8 Weeks): 20
- Recurrence, Abdominal Pain: % of subjects (non-constipation IBS; Rolling 4 Weeks: 5-8 Weeks): 3.0%
- Recurrence, Abdominal Pain: number of subjects (non-constipation IBS; Rolling 4 Weeks: 5-8 Weeks): 19
- Recurrence, Stool Consistency: % of subjects (non-constipation IBS; Rolling 4 Weeks: 5-8 Weeks): 2.1%
- Recurrence, Stool Consistency: number of subjects (non-constipation IBS; Rolling 4 Weeks: 5-8 Weeks): 13
- No Recurrence, Abdominal Pain & Stool Consistency: % of subjects (non-constipation IBS; Rolling 4 Weeks: 6-9 Weeks): (41.3%)
- No Recurrence, Abdominal Pain & Stool Consistency: number of subjects (non-constipation IBS; Rolling 4 Weeks: 6-9 Weeks): 258
- No Recurrence, Abdominal Pain: % of subjects (non-constipation IBS; Rolling 4 Weeks: 6-9 Weeks): (45.0%)
- No Recurrence, Abdominal Pain: number of subjects (non-constipation IBS; Rolling 4 Weeks: 6-9 Weeks): 281
- No Recurrence, Stool Consistency: % of subjects (non-constipation IBS; Rolling 4 Weeks: 6-9 Weeks): (75.5%)
- No Recurrence, Stool Consistency: number of subjects (non-constipation IBS; Rolling 4 Weeks: 6-9 Weeks): 471
- Recurrence, Abdominal Pain & Stool Consistency: % of subjects (non-constipation IBS; Rolling 4 Weeks: 6-9 Weeks): 2.2%
- Recurrence, Abdominal Pain & Stool Consistency: number of subjects (non-constipation IBS; Rolling 4 Weeks: 6-9 Weeks): 14
- Recurrence, Abdominal Pain: % of subjects (non-constipation IBS; Rolling 4 Weeks: 6-9 Weeks): 2.4%
- Recurrence, Abdominal Pain: number of subjects (non-constipation IBS; Rolling 4 Weeks: 6-9 Weeks): 15
- Recurrence, Stool Consistency: % of subjects (non-constipation IBS; Rolling 4 Weeks: 6-9 Weeks): 2.6%
- Recurrence, Stool Consistency: number of subjects (non-constipation IBS; Rolling 4 Weeks: 6-9 Weeks): 16
- No Recurrence, Abdominal Pain & Stool Consistency: % of subjects (non-constipation IBS; Rolling 4 Weeks: 7-10 Weeks): (39.1%)
- No Recurrence, Abdominal Pain & Stool Consistency: number of subjects (non-constipation IBS; Rolling 4 Weeks: 7-10 Weeks): 244
- No Recurrence, Abdominal Pain: % of subjects (non-constipation IBS; Rolling 4 Weeks: 7-10 Weeks): (42.6%)
- No Recurrence, Abdominal Pain: number of subjects (non-constipation IBS; Rolling 4 Weeks: 7-10 Weeks): 266
- No Recurrence, Stool Consistency: % of subjects (non-constipation IBS; Rolling 4 Weeks: 7-10 Weeks): (72.9%)
- No Recurrence, Stool Consistency: number of subjects (non-constipation IBS; Rolling 4 Weeks: 7-10 Weeks): 455
- Recurrence, Abdominal Pain & Stool Consistency: % of subjects (non-constipation IBS; Rolling 4 Weeks: 7-10 Weeks): 1.8%
- Recurrence, Abdominal Pain & Stool Consistency: number of subjects (non-constipation IBS; Rolling 4 Weeks: 7-10 Weeks): 11
- Recurrence, Abdominal Pain: % of subjects (non-constipation IBS; Rolling 4 Weeks: 7-10 Weeks): 2.4%
- Recurrence, Abdominal Pain: number of subjects (non-constipation IBS; Rolling 4 Weeks: 7-10 Weeks): 15
- Recurrence, Stool Consistency: % of subjects (non-constipation IBS; Rolling 4 Weeks: 7-10 Weeks): 1.4%
- Recurrence, Stool Consistency: number of subjects (non-constipation IBS; Rolling 4 Weeks: 7-10 Weeks): 9
- No Recurrence, Abdominal Pain & Stool Consistency: % of subjects (non-constipation IBS; Rolling 4 Weeks: 8-11 Weeks): (37.3%)
- No Recurrence, Abdominal Pain & Stool Consistency: number of subjects (non-constipation IBS; Rolling 4 Weeks: 8-11 Weeks): 233
- No Recurrence, Abdominal Pain: % of subjects (non-constipation IBS; Rolling 4 Weeks: 8-11 Weeks): (40.2%)
- No Recurrence, Abdominal Pain: number of subjects (non-constipation IBS; Rolling 4 Weeks: 8-11 Weeks): 251
- No Recurrence, Stool Consistency: % of subjects (non-constipation IBS; Rolling 4 Weeks: 8-11 Weeks): (71.5%)
- No Recurrence, Stool Consistency: number of subjects (non-constipation IBS; Rolling 4 Weeks: 8-11 Weeks): 446
- Recurrence, Abdominal Pain & Stool Consistency: % of subjects (non-constipation IBS; Rolling 4 Weeks: 8-11 Weeks): 2.2%
- Recurrence, Abdominal Pain & Stool Consistency: number of subjects (non-constipation IBS; Rolling 4 Weeks: 8-11 Weeks): 14
- Recurrence, Abdominal Pain: % of subjects (non-constipation IBS; Rolling 4 Weeks: 8-11 Weeks): 2.2%
- Recurrence, Abdominal Pain: number of subjects (non-constipation IBS; Rolling 4 Weeks: 8-11 Weeks): 14
- Recurrence, Stool Consistency: % of subjects (non-constipation IBS; Rolling 4 Weeks: 8-11 Weeks): 0.5%
- Recurrence, Stool Consistency: number of subjects (non-constipation IBS; Rolling 4 Weeks: 8-11 Weeks): 3
- No Recurrence, Abdominal Pain & Stool Consistency: % of subjects (non-constipation IBS; Rolling 4 Weeks: 9-12 Weeks): (35.1%)
- No Recurrence, Abdominal Pain & Stool Consistency: number of subjects (non-constipation IBS; Rolling 4 Weeks: 9-12 Weeks): 219
- No Recurrence, Abdominal Pain: % of subjects (non-constipation IBS; Rolling 4 Weeks: 9-12 Weeks): (38.0%)
- No Recurrence, Abdominal Pain: number of subjects (non-constipation IBS; Rolling 4 Weeks: 9-12 Weeks): 237
- No Recurrence, Stool Consistency: % of subjects (non-constipation IBS; Rolling 4 Weeks: 9-12 Weeks): (71.0%)
- No Recurrence, Stool Consistency: number of subjects (non-constipation IBS; Rolling 4 Weeks: 9-12 Weeks): 443
- Recurrence, Abdominal Pain & Stool Consistency: % of subjects (non-constipation IBS; Rolling 4 Weeks: 9-12 Weeks): 1.9%
- Recurrence, Abdominal Pain & Stool Consistency: number of subjects (non-constipation IBS; Rolling 4 Weeks: 9-12 Weeks): 12
- Recurrence, Abdominal Pain: % of subjects (non-constipation IBS; Rolling 4 Weeks: 9-12 Weeks): 2.2%
- Recurrence, Abdominal Pain: number of subjects (non-constipation IBS; Rolling 4 Weeks: 9-12 Weeks): 14
- Recurrence, Stool Consistency: % of subjects (non-constipation IBS; Rolling 4 Weeks: 9-12 Weeks): 2.1%
- Recurrence, Stool Consistency: number of subjects (non-constipation IBS; Rolling 4 Weeks: 9-12 Weeks): 13
- Abdominal Pain or Stool Consistency, No Recurrence (non-constipation IBS; Rolling 5-8 Weeks): 234 (37.5%)
- Abdominal Pain or Stool Consistency, Recurrence (non-constipation IBS; Rolling 5-8 Weeks): 16 (2.6%)
- Abdominal Pain or Stool Consistency, No Recurrence (non-constipation IBS; Rolling 6-9 Weeks): 218 (34.9%)
- Abdominal Pain or Stool Consistency, Recurrence (non-constipation IBS; Rolling 6-9 Weeks): 10 (1.6%)
- Abdominal Pain or Stool Consistency, No Recurrence (non-constipation IBS; Rolling 7-10 Weeks): 208 (33.3%)
- Abdominal Pain or Stool Consistency, Recurrence (non-constipation IBS; Rolling 7-10 Weeks): 10 (1.6%)
- Abdominal Pain or Stool Consistency, No Recurrence (non-constipation IBS; Rolling 8-11 Weeks): 198 (31.7%)
- Abdominal Pain or Stool Consistency, Recurrence (non-constipation IBS; Rolling 8-11 Weeks): 8 (1.3%)
- Abdominal Pain or Stool Consistency, No Recurrence (non-constipation IBS; Rolling 9-12 Weeks): 190 (30.4%)
- Abdominal Pain or Stool Consistency, Recurrence (non-constipation IBS; Rolling 9-12 Weeks): 10 (1.6%)
- Inhibition of CYP3A4 (CYP3A4): does not inhibit
